{"source": "patent US9988375B2", "about": "“Inhibitors of lysine gingipain” (priority 2014, dated 2018)", "note": "“Also recorded” adds a separate entry of the source."}
{"target": "lysine gingipain (Kgp) (Porphyromonas gingivalis (strain ATCC 33277 / DSM 20709 / CIP 103683 / JCM 12257 / NCTC 11834 / 2561), UniProt B2RLK2)", "assay": "Lysine gingipain (Kgp) fluorogenic inhibition assay", "format": "biochemical", "conditions": "0.1 nM Kgp, 10 uM Z-His-Glu-Lys-MCA, 90 minutes, 37° C., pH 7.5; read-out: Kgp IC50 average", "experimental": "(§1) The capacities of compounds of the present invention to inhibit the activity of lysine gingipain were measured in a fluorogenic assay similar to those described in Barret Biochemical Journal. 1980, 187(3), 909. The specific assay conditions were as follows. Buffer: pH=7.5, 100 mM Tris-HCl, 75 mM NaCl, 2.5 mM CaCl2, 10 mM cysteine, 1% DMSO after all additions. Protein: 0.1 nM Kgp, isolated from culture of Porphyromonas gingivalis, as described in Pike et al. J. Biol. Chem. 1994, 269(1), 406, and Potempa and Nguyen. Current Protocols in Protein Scienc. 2007, 21.20.1-21.20.27. Fluorogenic substrate: 10 uM Z-His-Glu-Lys-MCA. Time=90 minutes. Temperature=37° C. Each compound: 10 concentrations, starting at either 100 uM or 100 nM, with lower concentrations generated by serial 3-fold dilutions. By testing a range of concentrations for each compound, the concentration required to inhibit the activity of lysine gingipain by 50% (the “IC50”) was determined. Under the described assay conditions, signal-to-noise was excellent, and Z factor was greater than 0.6.\n(§2) The inhibitory of activity of compounds described herein was tested against Kgp, RgpB, and trypsin.", "units": {"IC50": "nM"}}
{"smiles": "CC(=O)N1CCC[C@H](C(=O)N[C@@H](CCCCN)C(=O)c2nc3ccccc3s2)C1", "note": "[Compound 8, (3S)-1-acetyl-N-[(1S)-5-amino-1-(1,3-benzothiazole-2-carbonyl)pentyl] piperidine-3-carboxamide]", "IC50": "10 to 25"}
{"smiles": "CC1(C(=O)N[C@@H](CCCCN)C(=O)c2nc3ccccc3s2)CCCCC1", "note": "[Compound 33, N-[(1S)-5-amino-1-(1,3-benzothiazole-2-carbonyl)pentyl]-1-methyl-cyclohexanecarboxamide]", "IC50": "1 to 10"}
{"smiles": "CC(=O)N1CCC[C@@H](C(=O)N[C@H](CCCCN)C(=O)c2nc3ccccc3s2)C1", "note": "[Compound 11, (3R)-1-acetyl-N-[(1R)-5-amino-1-(1,3-benzothiazole-2-carbonyl)pentyl]piperidine-3-carboxamide]", "IC50": "1 to 10"}
{"smiles": "NCCCC[C@H](NC(=O)C1CCCOC1)C(=O)c1nc2ccccc2s1", "note": "(single isomer, unassigned) [Compound 18]", "IC50": "10 to 25"}
{"smiles": "NCCCC[C@H](NC(=O)C1CCCC1)C(=O)c1ccccn1", "note": "[Compound 44, N-[(1S)-5-amino-1-(pyridine-2-carbonyl)pentyl]cyclopentanecarboxamide]", "IC50": "> 250"}
{"smiles": "NCCCC[C@H](NC(=O)C1CCCc2ccccc21)C(=O)c1nc2ccccc2s1", "note": "(stereo partly drawn) [Compound 31, N-[(1S)-5-amino-1-(1,3-benzothiazole-2-carbonyl)pentyl]tetralin-1-carboxamide]", "IC50": "10 to 25"}
{"smiles": "NCCCC[C@H](NC(=O)c1cncs1)C(=O)c1nc2ccccc2s1", "note": "[Compound 38, N-[(1S)-5-amino-1-(1,3-benzothiazole-2-carbonyl)pentyl]thiazole-5-carboxamide]", "IC50": "10 to 25"}
{"smiles": "NCCCCC(NC(=O)[C@@H]1CCCN(C(=O)CCc2ccccc2)C1)C(=O)c1nc2ccccc2s1", "note": "(single isomer, unassigned) [Compound 14]", "IC50": "1 to 10"}
{"smiles": "NCCCC[C@H](NC(=O)c1nccs1)C(=O)c1nc2ccccc2s1", "note": "[Compound 39, N-[(1S)-5-amino-1-(1,3-benzothiazole-2-carbonyl)pentyl]thiazole-2-carboxamide]", "IC50": "50 to 100"}
{"smiles": "CC(=O)N1CCOC(C(=O)N[C@@H](CCCCN)C(=O)c2nc3ccccc3s2)C1", "note": "(stereo partly drawn) [Compound 29, 4-acetyl-N-[(1S)-5-amino-1-(1,3-benzothiazole-2-carbonyl)pentyl]morpholine-2-carboxamide]", "IC50": "10 to 25"}
{"smiles": "NCCCC[C@H](NC(=O)c1cccnc1)C(=O)c1nc2ccccc2s1", "note": "[Compound 30, N-[(1S)-5-amino-1-(1,3-benzothiazole-2-carbonyl)pentyl]pyridine-3-carboxamide]", "IC50": "25 to 50"}
{"smiles": "CC(=O)N1CCC[C@H](C(=O)N[C@H](CCCCN)C(=O)c2nc3ccccc3s2)C1", "note": "[Compound 10, (3S)-1-acetyl-N-[(1R)-5-amino-1-(1,3-benzothiazole-2-carbonyl)pentyl] piperidine-3-carboxamide]", "IC50": "10 to 25"}
{"smiles": "NCCCC[C@H](NC(=O)C1CCCOC1)C(=O)c1nc2ccccc2s1", "note": "(single isomer, unassigned) [Compound 19]", "IC50": "10 to 25"}
{"smiles": "NCCCC[C@H](NC(=O)[C@@H]1CCCN(C(=O)CCc2ccccc2)C1)C(=O)c1nc2ccccc2s1", "note": "[Compound 4, (3R)—N-[(1S)-5-amino-1-(1,3-benzothiazole-2-carbonyl)pentyl]-1-(3-phenylpropanoyl)piperidine-3-carboxamide]", "IC50": "1 to 10"}
{"smiles": "NCCCC[C@H](NC(=O)C1CCCO1)C(=O)c1nc2ccccc2s1", "note": "(single isomer, unassigned) [Compound 35]", "IC50": "1 to 10"}
{"smiles": "NCCCC[C@H](NC(=O)c1cccc(=O)[nH]1)C(=O)c1nc2ccccc2s1", "note": "[Compound 40, N-[(1S)-5-amino-1-(1,3-benzothiazole-2-carbonyl)pentyl]-6-oxo-1H-pyridine-2-carboxamide]", "IC50": "25 to 50"}
{"smiles": "NCCCC[C@H](NC(=O)C1CCc2ccccc2C1)C(=O)c1nc2ccccc2s1", "note": "(stereo partly drawn) [Compound 32, N-[(1S)-5-amino-1-(1,3-benzothiazole-2-carbonyl)pentyl]tetralin-2-carboxamide]", "IC50": "1 to 10"}
{"smiles": "NCCCC[C@H](NC(=O)OCc1ccccc1)C(=O)c1nc2ccccc2s1", "note": "[Compound 23, Benzyl-N-[(1S)-5-amino-1-(1,3-benzothiazole-2-carbonyl)pentyl]carbamate]", "IC50": "100 to 250"}
{"smiles": "NCCCC[C@H](NC(=O)c1ccccc1C(F)(F)F)C(=O)c1nc2ccccc2s1", "note": "[Compound 7, N-[(1S)-5-amino-1-(1,3-benzothiazole-2-carbonyl)pentyl]-2-(trifluoromethyl)benzamide]", "IC50": "25 to 50"}
{"smiles": "NCCCC[C@H](NC(=O)c1ccncc1)C(=O)c1nc2ccccc2s1", "note": "[Compound 13, N-[(1S)-5-amino-1-(1,3-benzothiazole-2-carbonyl)pentyl]pyridine-4-carboxamide]", "IC50": "25 to 50"}
{"smiles": "NCCCC[C@H](NC(=O)[C@H]1CCCN(C(=O)CCc2ccccc2)C1)C(=O)c1nc2ccccc2s1", "note": "[Compound 3, (3S)—N-[(1S)-5-amino-1-(1,3-benzothiazole-2-carbonyl)pentyl]-1-(3-phenylpropanoyl)piperidine-3-carboxamide]", "IC50": "10 to 25"}
{"smiles": "NCCCC[C@H](NC(=O)C1CCCO1)C(=O)c1nc2ccccc2s1", "note": "(single isomer, unassigned) [Compound 34]", "IC50": "1 to 10"}
{"smiles": "NCCCC[C@H](NC(=O)C1CCCC1)C(=O)c1nc2ccccc2s1", "note": "[Compound 24, N-[(1S)-5-amino-1-(1,3-benzothiazole-2-carbonyl)pentyl]cyclo-pentanecarboxamide]", "IC50": "1 to 10"}
{"smiles": "NCCCC[C@H](NC(=O)c1ccccn1)C(=O)c1nc2ccccc2s1", "note": "[Compound 12, N-[(1S)-5-amino-1-(1,3-benzothiazole-2-carbonyl)pentyl]pyridine-2-carboxamide]", "IC50": "50 to 100"}
{"smiles": "NCCCC[C@H](NC(=O)C1CCOCC1)C(=O)c1nc2ccccc2s1", "note": "[Compound 22, N-[(1S)-5-amino-1-(1,3-benzothiazole-2-carbonyl)pentyl]tetrahydropyran-4-carboxamide]", "IC50": "10 to 25"}
{"smiles": "NCCCC[C@H](NC(=O)C1CCCCO1)C(=O)c1nc2ccccc2s1", "note": "(single isomer, unassigned) [Compound 26]", "IC50": "25 to 50"}
{"smiles": "NCCCCC(NC(=O)[C@@H]1CCCN(C(=O)CCc2ccccc2)C1)C(=O)c1nc2ccccc2s1", "note": "(single isomer, unassigned) [Compound 15]", "IC50": "1 to 10"}
{"smiles": "COC1(C(=O)N[C@@H](CCCCN)C(=O)c2nc3ccccc3s2)CCCCC1", "note": "[Compound 41, (S)—N-(6-amino-1-(benzo[d]thiazol-2-yl)-1-oxohexan-2-yl)-1-methoxycyclohexanecarboxamide]", "IC50": "10 to 25"}
{"smiles": "NCCCC[C@H](NC(=O)C1CCCCO1)C(=O)c1nc2ccccc2s1", "note": "(single isomer, unassigned) [Compound 25]", "IC50": "25 to 50"}
{"smiles": "NCCCC[C@H](NC(=O)C1CCCC1)C(=O)c1nccs1", "note": "[Compound 42, N-[(1S)-5-amino-1-(thiazole-2-carbonyl)pentyl]cyclopentanecarboxamide]", "IC50": "50 to 100"}
{"smiles": "CC(=O)N1CCC[C@@H](C(=O)N[C@@H](CCCCN)C(=O)c2nc3ccccc3s2)C1", "note": "[Compound 9, (3R)-1-acetyl-N-[(1S)-5-amino-1-(1,3-benzothiazole-2-carbonyl)pentyl]piperidine-3-carboxamide]", "IC50": "1 to 10"}
{"target": "lysine gingipain (Kgp) (Porphyromonas gingivalis (strain ATCC 33277 / DSM 20709 / CIP 103683 / JCM 12257 / NCTC 11834 / 2561), UniProt B2RLK2)", "assay": "Lysine gingipain (Kgp) fluorogenic inhibition assay", "format": "biochemical", "conditions": "read-out: Kgp IC50", "experimental": "as §1, §2", "units": {"IC50": "nM"}}
{"smiles": "NCCCC[C@H](NC(=O)[C@@H]1CCCN(C(=O)CCc2ccccc2)C1)C(=O)c1nc2ccccc2s1", "note": "[Compound 4, (3R)—N-[(1S)-5-amino-1-(1,3-benzothiazole-2-carbonyl)pentyl]-1-(3-phenylpropanoyl)piperidine-3-carboxamide]", "IC50": "1 to 10"}
{"smiles": "NCCCC[C@H](NC(=O)[C@H]1CCCN(C(=O)CCc2ccccc2)C1)C(=O)c1nc2ccccc2s1", "note": "[Compound 3, (3S)—N-[(1S)-5-amino-1-(1,3-benzothiazole-2-carbonyl)pentyl]-1-(3-phenylpropanoyl)piperidine-3-carboxamide]", "IC50": "10 to 25"}
{"system": "differentiated SHSY-5Y cells", "assay": "Gingipain-induced death of differentiated SH-SY5Y cells", "format": "cell-based", "conditions": "100 nM Kgp and/or RgpB for 24 hours", "experimental": "(§3) SH-SY5Y neuroblastoma cells were cultured and differentiated in the presence of 5 uM retinoic acid based on established methods [Saberi S., et al. Cell Mol Neurobiol 2013. 33: 747-751]. Differentiation into neuronal cells was verified by observation of neurite outgrowth. The differentiated cells were exposed to 100 nM Kgp and/or RgpB for 24 hours, in the presence or absence of Kgp inhibitors. Results were recorded using a digital microscope camera (FIG. 1C, FIG. 2C). Gingipains are toxic to cells while COR compounds prevent the cytotoxicity."}
{"smiles": "NCCCC[C@H](NC(=O)c1ccccc1)C(=O)c1nc2ccccc2s1", "note": "[Compound 1, N-[(1S)-5-amino-1-(1,3-benzothiazole-2-carbonyl)pentyl]benzamide]", "prevention of gingipain-induced death of differentiated SHSY-5Y cells": "prevents; also recorded: effective at preventing cell death"}
{"smiles": "NCCCC[C@H](NC(=O)[C@@H]1CCCN(C(=O)CCc2ccccc2)C1)C(=O)c1nc2ccccc2s1", "note": "[Compound 4, (3R)—N-[(1S)-5-amino-1-(1,3-benzothiazole-2-carbonyl)pentyl]-1-(3-phenylpropanoyl)piperidine-3-carboxamide]", "prevention of gingipain-induced death of differentiated SHSY-5Y cells": "prevents"}
{"smiles": "NCCCC[C@H](NC(=O)[C@H]1CCCN(C(=O)CCc2ccccc2)C1)C(=O)c1nc2ccccc2s1", "note": "[Compound 3, (3S)—N-[(1S)-5-amino-1-(1,3-benzothiazole-2-carbonyl)pentyl]-1-(3-phenylpropanoyl)piperidine-3-carboxamide]", "prevention of gingipain-induced death of differentiated SHSY-5Y cells": "does not"}
{"system": "differentiated SHSY-5Y cells", "assay": "Gingipain-induced death of differentiated SH-SY5Y cells", "format": "cell-based", "conditions": "100 nM Kgp and/or RgpB for 24 hours; listed as 2-(N—[N-(3-phenylpropanoyl)-(R)-nipecotinyl]-(R)-lysinyl)-benzothiazole", "experimental": "as §3"}
{"smiles": "NCCCC[C@H](NC(=O)[C@@H]1CCCN(C(=O)CCc2ccccc2)C1)C(=O)c1nc2ccccc2s1", "note": "[Compound 4, (3R)—N-[(1S)-5-amino-1-(1,3-benzothiazole-2-carbonyl)pentyl]-1-(3-phenylpropanoyl)piperidine-3-carboxamide]", "prevention of gingipain-induced death of differentiated SHSY-5Y cells": "effective at preventing cell death"}
{"target": "trypsin (Homo sapiens (Human), UniProt P07477)", "assay": "not given", "conditions": "cited from earlier work", "units": {"Ki": "nM"}}
{"smiles": "NCCC[C@H](NC(=O)C1CCCN(C(=O)CCc2ccccc2)C1)C(=O)c1nc2ccccc2s1", "note": "(mixture of isomers) [Compound A71561, 1-(3-phenylpropionyl)piperidine-3(R,S)-carboxylic acid [4-amino-1(S)-(benzothiazole-2-carbonyl)butyl]amide]", "Ki": 30}
{"target": "Kgp (Porphyromonas gingivalis (strain ATCC 33277 / DSM 20709 / CIP 103683 / JCM 12257 / NCTC 11834 / 2561), UniProt B2RLK2)", "assay": "not given", "conditions": "cited from earlier work", "units": {"Ki": "nM"}}
{"smiles": "NCCC[C@H](NC(=O)C1CCCN(C(=O)CCc2ccccc2)C1)C(=O)c1nc2ccccc2s1", "note": "(mixture of isomers) [Compound A71561, 1-(3-phenylpropionyl)piperidine-3(R,S)-carboxylic acid [4-amino-1(S)-(benzothiazole-2-carbonyl)butyl]amide]", "Ki": 0.9}
